Source: patent US20150105252A1, “SUBSTITUTED PYRAZOLES AS HERBICIDES” (E I DU PONT DE NEMOURS AND COMPANY, priority 2013, published 2015)

Key:
bluegrass = assay: Test D preemergence; format: in vivo, Poa annua; details: for Plant response rating, Bluegrass: Preemergence, scale 0 to 100
Description: (§1) Seeds of plant species selected from bluegrass (annual bluegrass, Poa annua), blackgrass (Alopecurus myosuroides), canarygrass (littleseed canarygrass, Phalaris minor), chickweed (common chickweed, Stellaria media), galium (catchweed bedstraw, Galium aparine), bromegrass, downy (downy bromegrass, Bromus tectorum), field poppy (Papaver rhoeas), field violet (Viola arvensis), foxtail, green (green foxtail, Setaria viridis), deadnettle (henbit deadnettle, Lamium amplexicaule), ryegrass, Italian (Italian ryegrass, Lolium multiflorum), kochia (Kochia scoparia), lambsquarters (Chenopodium album), oilseed rape (Brassica napus), pigweed (redroot pigweed, Amaranthus retroflexus), chamomile (scentless chamomile, Matricaria inodora), speedwell (bird's-eye speedwell, Veronica persica), barley, spring (spring barley, Hordeum vulgare), wheat, spring (spring wheat, Triticum aestivum), buckwheat, wild (wild buckwheat, Polygonum convolvulus), mustard, wild (wild mustard, Sinapis arvensis), oat, wild (wild oat, Avena fatua), radish, wild (wild radish, Raphanus raphanistrum), windgrass (Apera spica-venti), Russian thistle (Salsola kali), barley, winter (winter barley, Hordeum vulgare), and wheat, winter (winter wheat, Triticum aestivum) were planted into a silt loam soil and treated preemergence with test chemicals formulated in a non-phytotoxic solvent mixture which included a surfactant.
(§2) At the same time, these species were planted in pots containing Redi-Earth® planting medium (Scotts Company, 14111 Scottslawn Road, Marysville, Ohio 43041) comprising spaghnum peat moss, vermiculite, wetting agent and starter nutrients and treated with postemergence applications of the test chemicals formulated in the same manner. Plants ranged in height from 2 to 18 cm (1- to 4-leaf stage). Treated plants and controls were maintained in a controlled growth environment for 14 to 21 days after which time all species were compared to controls and visually evaluated. Plant response ratings, summarized in Table D, are based on a scale of 0 to 100 where 0 is no effect and 100 is complete control. A dash (-) response means no test result.

field violet = assay: Test D preemergence; format: in vivo, Viola arvensis; details: for Plant response rating, Field Violet: Preemergence, scale 0 to 100
Description: as §1, §2

kochia [1] = assay: Test D preemergence; format: in vivo, Kochia scoparia; details: for Plant response rating, Kochia: Preemergence, scale 0 to 100
Description: as §1, §2

lambsquarters [2] = assay: Test D preemergence; format: in vivo, Chenopodium album; details: for Plant response rating, Lambsquarters: Preemergence, scale 0 to 100
Description: as §1, §2

pigweed = assay: Test D preemergence; format: in vivo, Amaranthus retroflexus; details: for Plant response rating, Pigweed: Preemergence, scale 0 to 100
Description: as §1, §2

chamomile = assay: Test D preemergence; format: in vivo, Matricaria inodora; details: for Plant response rating, Chamomile: Preemergence, scale 0 to 100
Description: as §1, §2

barley, spring = assay: Test D preemergence; format: in vivo, Hordeum vulgare; details: for Plant response rating, Barley, Spring: Preemergence, scale 0 to 100
Description: as §1, §2

barley, winter = assay: Test D preemergence; format: in vivo, Hordeum vulgare; details: for Plant response rating, Barley, Winter: Preemergence, scale 0 to 100
Description: as §1, §2

mustard, wild [3] = assay: Test D preemergence; format: in vivo, Sinapis arvensis; details: for Plant response rating, Mustard, Wild: Preemergence, scale 0 to 100
Description: as §1, §2

oat, wild [4] = assay: Test D preemergence; format: in vivo, Avena fatua; details: for Plant response rating, Oat, Wild: Preemergence, scale 0 to 100
Description: as §1, §2

canarygrass = assay: Test D postemergence; format: in vivo, Phalaris minor; details: scale 0 to 100
Description: as §1, §2

galium = assay: Test D postemergence; format: in vivo, Galium aparine; details: scale 0 to 100
Description: as §1, §2

bromegrass, downy = assay: Test D postemergence; format: in vivo, Bromus tectorum; details: scale 0 to 100
Description: as §1, §2

foxtail, green = assay: Test D postemergence; format: in vivo, Setaria viridis; details: scale 0 to 100
Description: as §1, §2

ryegrass, Italian = assay: Test D postemergence; format: in vivo, Lolium multiflorum; details: scale 0 to 100
Description: as §1, §2

kochia [5] = assay: Test D postemergence; format: in vivo, Kochia scoparia; details: scale 0 to 100
Description: as §1, §2

lambsquarters [6] = assay: Test D postemergence; format: in vivo, Chenopodium album; details: scale 0 to 100
Description: as §1, §2

buckwheat, wild = assay: Test D postemergence; format: in vivo, Polygonum convolvulus; details: scale 0 to 100
Description: as §1, §2

mustard, wild [7] = assay: Test D postemergence; format: in vivo, Sinapis arvensis; details: scale 0 to 100
Description: as §1, §2

oat, wild [8] = assay: Test D postemergence; format: in vivo, Avena fatua; details: scale 0 to 100
Description: as §1, §2

[9] = 16 g ai/ha, taken as preemergence

Cc1cc(C(=O)NCC(F)(F)F)nn1Cc1ccnc(C(F)(F)F)c1 [Compound 74]
80: Plant response rating, Chamomile (chamomile; 62 g ai/ha) | Plant response rating, Mustard, Wild (mustard, wild [3]; 125 g ai/ha)
90: Plant response rating, Chamomile (chamomile; 125 g ai/ha)
65: Kochia plant response rating (kochia [5]; Postemergence, 125 g ai/ha) | Buckwheat, Wild plant response rating (buckwheat, wild; Postemergence, 125 g ai/ha)
10: Plant response rating, Oat, Wild (oat, wild [4]; 31 g ai/ha) | Plant response rating, Oat, Wild (oat, wild [4]; 62 g ai/ha) | Plant response rating, Galium (galium; Postemergence, 16 g ai/ha) | Foxtail, Green plant response rating (foxtail, green; Postemergence, 31 g ai/ha) | Ryegrass, Italian plant response rating (ryegrass, Italian; Postemergence, 125 g ai/ha)
70: Plant response rating, Pigweed (pigweed; 62 g ai/ha) | Galium plant response rating (galium; Postemergence, 125 g ai/ha) | Plant response rating, Lambsquarters (lambsquarters [6]; Postemergence, 16 g ai/ha) | Lambsquarters plant response rating (lambsquarters [6]; Postemergence, 31 g ai/ha)
85: Plant response rating, Kochia (kochia [1]; 31 g ai/ha) | Plant response rating, Lambsquarters (lambsquarters [2]; 125 g ai/ha) | Lambsquarters plant response rating (lambsquarters [6]; Postemergence, 125 g ai/ha)
60: Plant response rating, Field Violet (field violet; 31 g ai/ha) | Plant response rating, Field Violet (field violet; 62 g ai/ha) | Plant response rating, Chamomile (chamomile; 31 g ai/ha) | Plant response rating, Buckwheat, Wild (buckwheat, wild; Postemergence, 16 g ai/ha) | Buckwheat, Wild plant response rating (buckwheat, wild; Postemergence, 31 g ai/ha)
45: Buckwheat, Wild plant response rating (buckwheat, wild; postemergence, 62 g ai/ha)
100: Plant response rating, Kochia (kochia [1]; 62 g ai/ha) | Plant response rating, Kochia (kochia [1]; 125 g ai/ha) | Plant response rating, Pigweed (pigweed; 125 g ai/ha)
40: Galium plant response rating (galium; postemergence, 62 g ai/ha) | Foxtail, Green plant response rating (foxtail, green; Postemergence, 125 g ai/ha)
5: Plant response rating, Bluegrass (bluegrass; 125 g ai/ha) | Plant response rating, Barley, Spring (barley, spring; 125 g ai/ha) | Ryegrass, Italian plant response rating (ryegrass, Italian; Postemergence, 31 g ai/ha) | Ryegrass, Italian plant response rating (ryegrass, Italian; postemergence, 62 g ai/ha) | Oat, Wild plant response rating (oat, wild [8]; Postemergence, 31 g ai/ha) | Oat, Wild plant response rating (oat, wild [8]; Postemergence, 125 g ai/ha) | Oat, Wild plant response rating (oat, wild [8]; postemergence, 62 g ai/ha)
15: Plant response rating (scale 0 to 100), Pigweed (pigweed; [9]) | Plant response rating (scale 0 to 100), Mustard, Wild (mustard, wild [3]; [9]) | Foxtail, Green plant response rating (foxtail, green; postemergence, 62 g ai/ha) | Plant response rating, Kochia (kochia [5]; Postemergence, 16 g ai/ha)
25: Plant response rating (scale 0 to 100), Field Violet (field violet; [9]) | Plant response rating, Mustard, Wild (mustard, wild [3]; 31 g ai/ha) | Plant response rating, Mustard, Wild (mustard, wild [3]; 62 g ai/ha) | Kochia plant response rating (kochia [5]; Postemergence, 31 g ai/ha)
50: Plant response rating (scale 0 to 100), Kochia (kochia [1]; [9]) | Plant response rating, Lambsquarters (lambsquarters [2]; 31 g ai/ha)
0: Plant response rating (scale 0 to 100), Bluegrass (bluegrass; [9]) | Plant response rating, Bluegrass (bluegrass; 31 g ai/ha) | Plant response rating, Bluegrass (bluegrass; 62 g ai/ha) | Plant response rating (scale 0 to 100), Barley, Spring (barley, spring; 16 g ai/ha, taken as preemergence, 0 = no effect, 100 = complete control) | Plant response rating, Barley, Spring (barley, spring; 31 g ai/ha) | Plant response rating, Barley, Spring (barley, spring; 62 g ai/ha) | Plant response rating (scale 0 to 100), Barley, Winter (barley, winter; [9]) | Plant response rating, Barley, Winter (barley, winter; 31 g ai/ha) | Plant response rating, Barley, Winter (barley, winter; 62 g ai/ha) | Plant response rating, Barley, Winter (barley, winter; 125 g ai/ha) | Plant response rating, Canarygrass (canarygrass; Postemergence, 16 g ai/ha) | Canarygrass plant response rating (canarygrass; Postemergence, 31 g ai/ha) | Canarygrass plant response rating (canarygrass; Postemergence, 125 g ai/ha) | Canarygrass plant response rating (canarygrass; postemergence, 62 g ai/ha) | Plant response rating, Bromegrass, Downy (bromegrass, downy; Postemergence, 16 g ai/ha) | Bromegrass, Downy plant response rating (bromegrass, downy; Postemergence, 31 g ai/ha) | Bromegrass, Downy plant response rating (bromegrass, downy; Postemergence, 125 g ai/ha) | Bromegrass, Downy plant response rating (bromegrass, downy; postemergence, 62 g ai/ha) | Plant response rating, Foxtail, Green (foxtail, green; Postemergence, 16 g ai/ha) | Plant response rating, Ryegrass, Italian (ryegrass, Italian; Postemergence, 16 g ai/ha) | Plant response rating, Oat, Wild (oat, wild [8]; Postemergence, 16 g ai/ha)
35: Kochia plant response rating (kochia [5]; postemergence, 62 g ai/ha)
30: Plant response rating, Pigweed (pigweed; 31 g ai/ha) | Plant response rating, Oat, Wild (oat, wild [4]; 125 g ai/ha) | Mustard, Wild plant response rating (mustard, wild [7]; Postemergence, 31 g ai/ha) | Mustard, Wild plant response rating (mustard, wild [7]; postemergence, 62 g ai/ha)
95: Plant response rating, Field Violet (field violet; 125 g ai/ha)
75: Lambsquarters plant response rating (lambsquarters [6]; postemergence, 62 g ai/ha)
20: Plant response rating (scale 0 to 100), Lambsquarters (lambsquarters [2]; [9]) | Plant response rating, Lambsquarters (lambsquarters [2]; 62 g ai/ha) | Plant response rating (scale 0 to 100), Chamomile (chamomile; [9]) | Plant response rating (scale 0 to 100), Oat, Wild (oat, wild [4]; [9]) | Galium plant response rating (galium; Postemergence, 31 g ai/ha) | Plant response rating, Mustard, Wild (mustard, wild [7]; Postemergence, 16 g ai/ha)
55: Mustard, Wild plant response rating (mustard, wild [7]; Postemergence, 125 g ai/ha)
